Results from patent publication US20150297643A1, “INHIBITION OF RHO AND OR ROCK AND CELL TRANSPLANTATION” (priority 2012, published 2015).

System: retinal ganglion cells (RGCs)
Format: in vivo, rat

## C[C@@H](N)[C@H]1CC[C@H](C(=O)Nc2ccncc2)CC1 [Y-27632]
100 uM and 1 mM Y-27632, one week after optic nerve injury
  neuroprotective effect on RGCs: No neuroprotective effect
rat, in vivo
  rescue of neurons from trauma-induced cell death (Example 8, summary): not able to rescue neurons from trauma-induced cell death

## C[C@@H](N)C1CCN(S(=O)(=O)c2cccc3cnccc23)CC1 [BA-1049]
Highest dose tested (10 uM and 100 uM BA-1049 tested)
  neuroprotection of RGCs: modest neuroprotection
Very high concentration (1 mM)
  effect on RGC survival (FIG. 5): detectable effect

## C3-transferase
rat, in vivo
  RGCs protected after axotomy: 80%
